Measurements as given in the supplement of paper PMC4862054.

Each molecule was assayed on MFM-223 (assay: normalised response (% of control), CellTiter-Glo; higher = more viable cells (100 = DMSO, 0 = benzethonium chloride kill control)). Details: incubation time: 72 h.
In short: (§1)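 Each value is the plate-normalised signal at one concentration of the series. Breast cancer cell lines (20 µl suspension) were incubated 72 h in 384-well plates with compound at 5 concentrations in 10-fold steps over a compound-specific 10,000-fold range. CellTox Green and then CellTiter-Glo were read, and each plate was scaled to 0.1 % DMSO (100) and a positive kill control (0).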
`O=C(O)CNC(=O)c1c(O)c2ccccc2n(Cc2ccccc2)c1=O` [IOX-2] (50 nM) showed a normalised response of 104%. Molecule `CC(=O)[C@]1(O)Cc2c(O)c3c(c(O)c2[C@@H](O[C@H]2C[C@H](N)[C@H](O)[C@H](C)O2)C1)C(=O)c1ccccc1C3=O` [Idarubicin] (1 nM) has a normalised response of 109%. For `C/C(=C\c1csc(C)n1)[C@@H]1C[C@@H]2O[C@]2(C)CCC[C@H](C)[C@H](O)[C@@H](C)C(=O)C(C)(C)[C@@H](O)CC(=O)N1` [Ixabepilone] (1 nM), the normalised response was 106%. In the case of `CN(C)C(=N)NC(=N)N` [Metformin] (100 nM), the normalised response is reported as 87.2%. `CC[C@H](CO)Nc1nc(NCc2ccccc2)c2ncn(C(C)C)c2n1` [Seliciclib] (10 nM) showed a normalised response of 101%. Work on `O=[N+]([O-])c1ccc2c(c1)S(=O)(=O)C=C2` [Stattic] (50 nM) yielded a normalised response of 102%. `O=C(CCCCCCC(=O)Nc1ccccc1)NO` [Vorinostat] (10 nM) was tested, and the normalised response was 101%.

The molecules below were run on DU-4475 in the same assay as above. Details: incubation time: 72 h.
In short: as §1
In the case of `CCn1c(C(=O)N(C2CC2)C2CC2)cc2c3c(ncn3C)c(Nc3cc(C)n(C)n3)nc21` (1 nM), the normalised response is reported as 99.7%. Molecule `CCn1c(C(=O)N(C2CC2)C2CC2)cc2c3c(ncn3C)c(Nc3cc(C)n(C)n3)nc21` (10 nM) has a normalised response of 96.9%. Molecule `COc1ccc(S(=O)(=O)Nc2cccnc2Nc2ccc(O)cc2)cc1` [ABT-751] (10 nM) has a normalised response of 102%. Work on `CN[C@@H](C)C(=O)N[C@H]1CN(C(=O)CC(C)C)CC[C@H]2CC[C@@H](C(=O)NC(c3ccccc3)c3ccccc3)N2C1=O` [AT-406] (1 nM) yielded a normalised response of 98.2%. `CN[C@@H](C)C(=O)N[C@H]1CN(C(=O)CC(C)C)CC[C@H]2CC[C@@H](C(=O)NC(c3ccccc3)c3ccccc3)N2C1=O` [AT-406] (10 nM) was tested, and the normalised response was 99.9%. `Cc1cc(Nc2nc(N[C@@H](C)c3ncc(F)cn3)ncc2Cl)[nH]n1` [AZD1480] (1 nM) showed a normalised response of 102%. `CNC(=O)c1ccccc1Sc1ccc2c(/C=C/c3ccccn3)n[nH]c2c1` [Axitinib] (10 nM) was tested, and the normalised response was 102%. With `CC(O)(CS(=O)(=O)c1ccc(F)cc1)C(=O)Nc1ccc(C#N)c(C(F)(F)F)c1` (centres undefined) [Bicalutamide] (10 nM) the normalised response was 104%. Work on `CCNC(=O)CCC/C=C\C[C@@H]1[C@@H](/C=C/[C@@H](O)CCc2ccccc2)[C@H](O)C[C@@H]1O` [Bimatoprost] (5.5 nM) yielded a normalised response of 99.5%. With `COc1cc(Nc2c(C#N)cnc3cc(OCCCN4CCN(C)CC4)c(OC)cc23)c(Cl)cc1Cl` [Bosutinib] (10 nM) the normalised response was 97.7%. Work on `CCN(CC)CCCC(C)Nc1ccnc2cc(Cl)ccc12` (centres undefined) [Chloroquine] (10 nM) yielded a normalised response of 92.2%. `CC1(COc2ccc3c(c2)ncn3-c2ccc3cccc(N4CCC(N)CC4)c3n2)COC1` [Crenolanib] (10 nM) showed a normalised response of 103%. Molecule `CC(C)(C)c1nc(-c2cccc(NS(=O)(=O)c3c(F)cccc3F)c2F)c(-c2ccnc(N)n2)s1` [Dabrafenib] (2.5 nM) has a normalised response of 104%. In the case of `Nc1ccn([C@@H]2O[C@H](CO)[C@@H](O)C2(F)F)c(=O)n1` [Gemcitabine] (1 nM), the normalised response is reported as 94%. Work on `O=C(O)CNC(=O)c1c(O)c2ccccc2n(Cc2ccccc2)c1=O` [IOX-2] (50 nM) yielded a normalised response of 95.1%. `CC(=O)[C@]1(O)Cc2c(O)c3c(c(O)c2[C@@H](O[C@H]2C[C@H](N)[C@H](O)[C@H](C)O2)C1)C(=O)c1ccccc1C3=O` [Idarubicin] (1 nM) was tested, and the normalised response was 101%. `C/C(=C\c1csc(C)n1)[C@@H]1C[C@@H]2O[C@]2(C)CCC[C@H](C)[C@H](O)[C@@H](C)C(=O)C(C)(C)[C@@H](O)CC(=O)N1` [Ixabepilone] (1 nM) showed a normalised response of 102%. `CN(C)C(=N)NC(=N)N` [Metformin] (100 nM) showed a normalised response of 93%. With `CC[C@H](CO)Nc1nc(NCc2ccccc2)c2ncn(C(C)C)c2n1` [Seliciclib] (10 nM) the normalised response was 103%. `O=[N+]([O-])c1ccc2c(c1)S(=O)(=O)C=C2` [Stattic] (50 nM) was tested, and the normalised response was 99.9%. `O=C(CCCCCCC(=O)Nc1ccccc1)NO` [Vorinostat] (10 nM) showed a normalised response of 105%.

These molecules were tested on MCF-10A in the same assay as above. Details: incubation time: 72 h.
In short: as §1
For `CCn1c(C(=O)N(C2CC2)C2CC2)cc2c3c(ncn3C)c(Nc3cc(C)n(C)n3)nc21` (1 nM), the normalised response was 102%. For `CCn1c(C(=O)N(C2CC2)C2CC2)cc2c3c(ncn3C)c(Nc3cc(C)n(C)n3)nc21` (10 nM), the normalised response was 99.8%. In the case of `COc1ccc(S(=O)(=O)Nc2cccnc2Nc2ccc(O)cc2)cc1` [ABT-751] (10 nM), the normalised response is reported as 101%. `CN[C@@H](C)C(=O)N[C@H]1CN(C(=O)CC(C)C)CC[C@H]2CC[C@@H](C(=O)NC(c3ccccc3)c3ccccc3)N2C1=O` [AT-406] (1 nM) was tested, and the normalised response was 108%. `CN[C@@H](C)C(=O)N[C@H]1CN(C(=O)CC(C)C)CC[C@H]2CC[C@@H](C(=O)NC(c3ccccc3)c3ccccc3)N2C1=O` [AT-406] (10 nM) showed a normalised response of 105%. Work on `Cc1cc(Nc2nc(N[C@@H](C)c3ncc(F)cn3)ncc2Cl)[nH]n1` [AZD1480] (1 nM) yielded a normalised response of 97.1%. `CNC(=O)c1ccccc1Sc1ccc2c(/C=C/c3ccccn3)n[nH]c2c1` [Axitinib] (10 nM) gave a normalised response of 103%. `CC(O)(CS(=O)(=O)c1ccc(F)cc1)C(=O)Nc1ccc(C#N)c(C(F)(F)F)c1` (centres undefined) [Bicalutamide] (10 nM) was tested, and the normalised response was 109%. In the case of `CCNC(=O)CCC/C=C\C[C@@H]1[C@@H](/C=C/[C@@H](O)CCc2ccccc2)[C@H](O)C[C@@H]1O` [Bimatoprost] (5.5 nM), the normalised response is reported as 96.4%. Molecule `COc1cc(Nc2c(C#N)cnc3cc(OCCCN4CCN(C)CC4)c(OC)cc23)c(Cl)cc1Cl` [Bosutinib] (10 nM) has a normalised response of 96.9%. With `CCN(CC)CCCC(C)Nc1ccnc2cc(Cl)ccc12` (centres undefined) [Chloroquine] (10 nM) the normalised response was 101%. For `CC1(COc2ccc3c(c2)ncn3-c2ccc3cccc(N4CCC(N)CC4)c3n2)COC1` [Crenolanib] (10 nM), the normalised response was 106%. `CC(C)(C)c1nc(-c2cccc(NS(=O)(=O)c3c(F)cccc3F)c2F)c(-c2ccnc(N)n2)s1` [Dabrafenib] (2.5 nM) gave a normalised response of 112%. With `Nc1ccn([C@@H]2O[C@H](CO)[C@@H](O)C2(F)F)c(=O)n1` [Gemcitabine] (1 nM) the normalised response was 109%. `O=C(O)CNC(=O)c1c(O)c2ccccc2n(Cc2ccccc2)c1=O` [IOX-2] (50 nM) showed a normalised response of 103%. With `CC(=O)[C@]1(O)Cc2c(O)c3c(c(O)c2[C@@H](O[C@H]2C[C@H](N)[C@H](O)[C@H](C)O2)C1)C(=O)c1ccccc1C3=O` [Idarubicin] (1 nM) the normalised response was 105%. `C/C(=C\c1csc(C)n1)[C@@H]1C[C@@H]2O[C@]2(C)CCC[C@H](C)[C@H](O)[C@@H](C)C(=O)C(C)(C)[C@@H](O)CC(=O)N1` [Ixabepilone] (1 nM) was tested, and the normalised response was 103%. Molecule `CN(C)C(=N)NC(=N)N` [Metformin] (100 nM) has a normalised response of 77.5%. With `CC[C@H](CO)Nc1nc(NCc2ccccc2)c2ncn(C(C)C)c2n1` [Seliciclib] (10 nM) the normalised response was 107%. Molecule `O=[N+]([O-])c1ccc2c(c1)S(=O)(=O)C=C2` [Stattic] (50 nM) has a normalised response of 102%. In the case of `O=C(CCCCCCC(=O)Nc1ccccc1)NO` [Vorinostat] (10 nM), the normalised response is reported as 102%.
